Change in vivo data for two compounds are collected here from patent US20140243292A1, “SUBSITUTED 2-(CHROMAN-6-YLOXYL)-THIAZOLES AND THEIR USE AS PHARMACEUTICALS” (Sanofi, priority 2011, published 2014).

The experiment relates to Sprague-Dawley rats. The experiment in a line: In vivo method for determining the effect on heart contractility (left ventricular dp/dtmax). Particulars: Rattus norvegicus, iv, anesthetized rats, vs solvent control, read-out: Contractility increase (%); for change in vivo at 0.1 mg/kg: i.v. bolus injection 0.1 mg/kg; for change in vivo at 0.3 mg/kg: i.v. bolus injection 0.3 mg/kg; for change in vivo at 1 mg/kg: i.v. bolus injection 1.0 mg/kg. How it is done:
Adult male Sprague-Dawley rats (Harlan Winkelmann, Borchen, Germany) weighing 340 to 370 g were anesthetized with pentobarbital (100 mg/kg i.p.) and ventilated with a mixture of oxygen (40%) and room air (60%) at a tidal volume of 1 ml/100 g at 60 breaths/min. Body temperature was maintained at 36.5±0.3° C. with a heating lamp and was monitored with a rectal thermo sensor. Systemic blood pressure was measured in the left carotid artery using a pressure transducer (Combitrans; B. Braun Melsungen AG, Melsungen, Germany) connected to a DC-bridge-amplifier (PLUGSYS/ADC Type 663; Harvard Apparatus GmbH, March-Hugstetten, Germany). The electrocardiogram was measured as lead II via subcutaneously placed electrodes connected to a Heart-Rate-Module ([…] Type 669; Harvard Apparatus GmbH, March-Hugstetten, Germany). A micro-tip catheter (2 French, SPR-320; Millar Instruments, Houston, Tex., USA) was placed via the right carotid artery into the left ventricle, and the left ventricular pressure (LVP) and the enddiastolic pressure (EDP) were continuously measured. Registration of the hemodynamic data was performed via an analog digital converter by a personal computer using Notocord software (HEM version 3.5). Left ventricular contractility (dp/dtmax) and relaxation (dp/dtmin) were calculated from the LVP signal. For intravenous administration of the test compounds, the left jugular vein was prepared and a PP-50 catheter was inserted. Test compounds were administered either by intravenous bolus injection or by intravenous infusion by means of an infusion pump (Unita; B. Braun Melsungen AG, Melsungen, Germany). […] In a typical experiment, several dosages of the test compound were administered subsequently at increasing doses. Statistical significance of the data obtained with drug vs. control experiments, in which solvent was administered, was evaluated with the 2-sided ANOVA test (program Everstat). Increases in left ventricular contractility (percent increase) by example compounds are given in Table 3 in comparison to control experiments in which solvent was administered.

For `Cc1ccccc1C1CCc2cc(Oc3ncc(CNC(=O)c4ccno4)s3)ccc2O1` (stereo not drawn) [Example 329, Isoxazole-5-carboxylic acid [2-(2-o-tolyl-chroman-6-yloxy)-thiazol-5-ylmethyl]-amide], the change in vivo at 0.1 mg/kg was found to be 24%, the change in vivo at 0.3 mg/kg turned out to be 53% and the change in vivo at 1 mg/kg turned out to be 101%.

On to `Cc1ccccc1C1CCc2cc(Oc3ncc(C(=O)NCCO)s3)ccc2O1` (stereo not drawn) [Example 299, 2-(2-o-Tolyl-chroman-6-yloxy)-thiazole-5-carboxylic acid (2-hydroxy-ethyl)-amide], for which the change in vivo at 0.1 mg/kg came to 36%, the change in vivo at 0.3 mg/kg stood at 62% and the change in vivo at 1 mg/kg came to 95%.
